“Also recorded” adds a separate entry of the source.
How the values were obtained:
RyR1 = molecular target: T1, RyR1 (Mus musculus, UniProt E9PZQ0); assay: Ca2+ sparks frequency in saponin skinned EDL muscle fibres of post myocardial infarction (PMI) mice; format: cell-based; settings: 1 μM 4F4t-NeuroP, acute incubation; EDL fibres from PMI mice
T1 construct: Fluo-4 Ca2+ sparks

[1] = tested on: mouse diaphragm muscle fibers; assay: Diaphragm muscle fibre atrophy (cross section area, fibre type) after 12 hours of mechanical ventilation in mice; format: in vivo; settings: 10 μM, 12 h MV
Experimental: FIG. 3: A. Force frequency relationship of mice diaphragm muscle, after 12 hours of mechanical ventilation, treated or not with 10 μM 4F4t-NeuroP. […] Representative immunostaining of fast and slow diaphragm muscle fibers in mouse. Antibodies against fast- and slow-type myosin ATPase were used to perform immunostaining on cryosections of mouse diaphragm. Muscle membrane was counterstained with dystrophin antibodies. The staining was performed in diaphragm muscle 12 h after MV with or without 4F4t-NeuroP. Average cross-section area was quantified in each condition including all fibre type (B.) or by discriminating slow versus fast fibres (C.). D. Average distribution of Fast versus Slow twitch fibres in each condition. (*p<0.05 vs control)
6 hours of MV remains a rather short time of ventilation which represents a particular interest to explore proximal pathophysiological mechanisms of VIDD. As previously reported, 6 hours of mechanical ventilation is able to induce force deficit without histological alterations. However, 12 hours of mechanical ventilation can induce muscle atrophy by a mechanism mediated by RyR1 dependent SR Ca^2+-leak. The inventors therefore tested here the beneficial effect of 4F4t-NeuroP after 12 hours of mechanical ventilation.

piglet diaphragm (VIDD) = assay: Trans-diaphragmatic pressure (Pdi)-frequency relationship after 72 hours of mechanical ventilation in piglets; format: in vivo; settings: for prevention of VIDD in porcine model: general statement, piglets
Experimental: As previously described^18,25, twelve piglets (15-20 kg) were separated in two groups of six animals/each. In both groups, oxygenation was maintained with a fraction of inspired oxygen (FIO2) ranging from 25 to 35%, tidal volume between 10 and 12 ml·kg^−1 body weight and breathing frequency from 15 to 30 cycles/min to maintain normocapnia. In the first group (MV group), piglets were mechanically ventilated using CMV, with a positive end-expiratory pressure level at 5 cm H2O. The absence of spontaneous breathing was verified on the ventilator trend graphs, and the diaphragm electromyographic activity was measured to ensure the absence of diaphragm electrical activity. In the second group (control group), piglets were ventilated using ASV, with settings in phase with the piglet body weight (inspiratory flow trigger at 0.3 L·min^−1, percentage of mechanical ventilation between 100 and 150%, positive end-expiratory pressure level at 5 cm H2O, and expiratory trigger at 25% of the peak inspiratory flow). The diaphragm electromyographic activity was assessed to verify that piglets could breathe spontaneously. Both groups received the same care, except for the MV mode.
Briefly, piglets were anesthetized by intravenous injection of 5-6 mg kg^−1 pentobarbital sodium, intubated with a cuffed endotracheal tube and mechanically ventilated (Galileo®; Hamilton Medical AG, Rhazuns, Switzerland). Anesthesia was maintained with continuous intravenous infusion of 15-20 mg·kg^−1 propofol, 0.1-0.3 mg·kg^−1 midazolam and 3-4 mg·kg^−1·h^−1 ketamine. The level of sedation was monitored by using a bispectral index system (BIS®; Aspect, Norwood, MA). Heating pads were employed, as needed, to maintain the normal body temperature of 38.5-39.5 °C. […]
Arterial carbon dioxide pressure was monitored using a capnograph (Deltatrac®; Datex-Ohmeda, Helsinki, Fin-land) and verified by arterial blood gas analysis (iSTAT®; Abbott, Abbott Park, IL). […]
The diaphragm contractile function was assessed in vivo by measuring the transdiaphragmatic pressure (Pdi)^18. […]

RyR2 = settings: cited from earlier work
[2] = Pharmacokinetic study in pigs, plasmatic concentration after IV bolus; format: in vivo, piglets; settings: single IV bolus 0.250 mg·kg^−1, 3 pigs
Experimental: In a first set of experiment, a pharmacokinetic study was performed on 3 control pig injected with a single bolus of VB558 (0.250 mg·kg^−1). Blood samples were collected every regularly during 12 hours to evaluate the plasmatic concentration of VB558. […] In order to test the preventing effect of VB558 in the piglet model, the protocol of IV injection was slightly adapted to the duration of the mechanical ventilation (i.e 72 hours). The inventors injected a bolus of 0.250 mg·kg^−1 then a maintenance dose of 0.025 mg·kg^−1 every 12 hours (FIG. 5B). The VB558 group was compared to a group of piglets (placebo) receiving the same amount of solvent (methanol) (FIG. 5B).

[3] = tested on: ventricular cardiomyocytes derived from DMD hIPSc (RyR2); assay: Diastolic level of calcium in ventricular cardiomyocytes derived from DMD hIPSc (indo-1); format: cell-based, human
Experimental: FIG. 6: Effect of Hexanor on the diastolic level of Calcium in ventricular cardiomyocytes derived from DMD and control hIPSc. The cardiomyocytes were loaded with indo-1 to assess in a ratiometric manner the intracellular level of calcium. […] A. The level of calcium is higher in DMD compared to control cells. This is prevented by hexanor (1 μM).
The inventors then tested the impact of VB558 on the diastolic level of Calcium in ventricular cardiomyocytes derived from Duchenne muscular dystrophy (DMD).

T1 sequence (E9PZQ0 whole entry): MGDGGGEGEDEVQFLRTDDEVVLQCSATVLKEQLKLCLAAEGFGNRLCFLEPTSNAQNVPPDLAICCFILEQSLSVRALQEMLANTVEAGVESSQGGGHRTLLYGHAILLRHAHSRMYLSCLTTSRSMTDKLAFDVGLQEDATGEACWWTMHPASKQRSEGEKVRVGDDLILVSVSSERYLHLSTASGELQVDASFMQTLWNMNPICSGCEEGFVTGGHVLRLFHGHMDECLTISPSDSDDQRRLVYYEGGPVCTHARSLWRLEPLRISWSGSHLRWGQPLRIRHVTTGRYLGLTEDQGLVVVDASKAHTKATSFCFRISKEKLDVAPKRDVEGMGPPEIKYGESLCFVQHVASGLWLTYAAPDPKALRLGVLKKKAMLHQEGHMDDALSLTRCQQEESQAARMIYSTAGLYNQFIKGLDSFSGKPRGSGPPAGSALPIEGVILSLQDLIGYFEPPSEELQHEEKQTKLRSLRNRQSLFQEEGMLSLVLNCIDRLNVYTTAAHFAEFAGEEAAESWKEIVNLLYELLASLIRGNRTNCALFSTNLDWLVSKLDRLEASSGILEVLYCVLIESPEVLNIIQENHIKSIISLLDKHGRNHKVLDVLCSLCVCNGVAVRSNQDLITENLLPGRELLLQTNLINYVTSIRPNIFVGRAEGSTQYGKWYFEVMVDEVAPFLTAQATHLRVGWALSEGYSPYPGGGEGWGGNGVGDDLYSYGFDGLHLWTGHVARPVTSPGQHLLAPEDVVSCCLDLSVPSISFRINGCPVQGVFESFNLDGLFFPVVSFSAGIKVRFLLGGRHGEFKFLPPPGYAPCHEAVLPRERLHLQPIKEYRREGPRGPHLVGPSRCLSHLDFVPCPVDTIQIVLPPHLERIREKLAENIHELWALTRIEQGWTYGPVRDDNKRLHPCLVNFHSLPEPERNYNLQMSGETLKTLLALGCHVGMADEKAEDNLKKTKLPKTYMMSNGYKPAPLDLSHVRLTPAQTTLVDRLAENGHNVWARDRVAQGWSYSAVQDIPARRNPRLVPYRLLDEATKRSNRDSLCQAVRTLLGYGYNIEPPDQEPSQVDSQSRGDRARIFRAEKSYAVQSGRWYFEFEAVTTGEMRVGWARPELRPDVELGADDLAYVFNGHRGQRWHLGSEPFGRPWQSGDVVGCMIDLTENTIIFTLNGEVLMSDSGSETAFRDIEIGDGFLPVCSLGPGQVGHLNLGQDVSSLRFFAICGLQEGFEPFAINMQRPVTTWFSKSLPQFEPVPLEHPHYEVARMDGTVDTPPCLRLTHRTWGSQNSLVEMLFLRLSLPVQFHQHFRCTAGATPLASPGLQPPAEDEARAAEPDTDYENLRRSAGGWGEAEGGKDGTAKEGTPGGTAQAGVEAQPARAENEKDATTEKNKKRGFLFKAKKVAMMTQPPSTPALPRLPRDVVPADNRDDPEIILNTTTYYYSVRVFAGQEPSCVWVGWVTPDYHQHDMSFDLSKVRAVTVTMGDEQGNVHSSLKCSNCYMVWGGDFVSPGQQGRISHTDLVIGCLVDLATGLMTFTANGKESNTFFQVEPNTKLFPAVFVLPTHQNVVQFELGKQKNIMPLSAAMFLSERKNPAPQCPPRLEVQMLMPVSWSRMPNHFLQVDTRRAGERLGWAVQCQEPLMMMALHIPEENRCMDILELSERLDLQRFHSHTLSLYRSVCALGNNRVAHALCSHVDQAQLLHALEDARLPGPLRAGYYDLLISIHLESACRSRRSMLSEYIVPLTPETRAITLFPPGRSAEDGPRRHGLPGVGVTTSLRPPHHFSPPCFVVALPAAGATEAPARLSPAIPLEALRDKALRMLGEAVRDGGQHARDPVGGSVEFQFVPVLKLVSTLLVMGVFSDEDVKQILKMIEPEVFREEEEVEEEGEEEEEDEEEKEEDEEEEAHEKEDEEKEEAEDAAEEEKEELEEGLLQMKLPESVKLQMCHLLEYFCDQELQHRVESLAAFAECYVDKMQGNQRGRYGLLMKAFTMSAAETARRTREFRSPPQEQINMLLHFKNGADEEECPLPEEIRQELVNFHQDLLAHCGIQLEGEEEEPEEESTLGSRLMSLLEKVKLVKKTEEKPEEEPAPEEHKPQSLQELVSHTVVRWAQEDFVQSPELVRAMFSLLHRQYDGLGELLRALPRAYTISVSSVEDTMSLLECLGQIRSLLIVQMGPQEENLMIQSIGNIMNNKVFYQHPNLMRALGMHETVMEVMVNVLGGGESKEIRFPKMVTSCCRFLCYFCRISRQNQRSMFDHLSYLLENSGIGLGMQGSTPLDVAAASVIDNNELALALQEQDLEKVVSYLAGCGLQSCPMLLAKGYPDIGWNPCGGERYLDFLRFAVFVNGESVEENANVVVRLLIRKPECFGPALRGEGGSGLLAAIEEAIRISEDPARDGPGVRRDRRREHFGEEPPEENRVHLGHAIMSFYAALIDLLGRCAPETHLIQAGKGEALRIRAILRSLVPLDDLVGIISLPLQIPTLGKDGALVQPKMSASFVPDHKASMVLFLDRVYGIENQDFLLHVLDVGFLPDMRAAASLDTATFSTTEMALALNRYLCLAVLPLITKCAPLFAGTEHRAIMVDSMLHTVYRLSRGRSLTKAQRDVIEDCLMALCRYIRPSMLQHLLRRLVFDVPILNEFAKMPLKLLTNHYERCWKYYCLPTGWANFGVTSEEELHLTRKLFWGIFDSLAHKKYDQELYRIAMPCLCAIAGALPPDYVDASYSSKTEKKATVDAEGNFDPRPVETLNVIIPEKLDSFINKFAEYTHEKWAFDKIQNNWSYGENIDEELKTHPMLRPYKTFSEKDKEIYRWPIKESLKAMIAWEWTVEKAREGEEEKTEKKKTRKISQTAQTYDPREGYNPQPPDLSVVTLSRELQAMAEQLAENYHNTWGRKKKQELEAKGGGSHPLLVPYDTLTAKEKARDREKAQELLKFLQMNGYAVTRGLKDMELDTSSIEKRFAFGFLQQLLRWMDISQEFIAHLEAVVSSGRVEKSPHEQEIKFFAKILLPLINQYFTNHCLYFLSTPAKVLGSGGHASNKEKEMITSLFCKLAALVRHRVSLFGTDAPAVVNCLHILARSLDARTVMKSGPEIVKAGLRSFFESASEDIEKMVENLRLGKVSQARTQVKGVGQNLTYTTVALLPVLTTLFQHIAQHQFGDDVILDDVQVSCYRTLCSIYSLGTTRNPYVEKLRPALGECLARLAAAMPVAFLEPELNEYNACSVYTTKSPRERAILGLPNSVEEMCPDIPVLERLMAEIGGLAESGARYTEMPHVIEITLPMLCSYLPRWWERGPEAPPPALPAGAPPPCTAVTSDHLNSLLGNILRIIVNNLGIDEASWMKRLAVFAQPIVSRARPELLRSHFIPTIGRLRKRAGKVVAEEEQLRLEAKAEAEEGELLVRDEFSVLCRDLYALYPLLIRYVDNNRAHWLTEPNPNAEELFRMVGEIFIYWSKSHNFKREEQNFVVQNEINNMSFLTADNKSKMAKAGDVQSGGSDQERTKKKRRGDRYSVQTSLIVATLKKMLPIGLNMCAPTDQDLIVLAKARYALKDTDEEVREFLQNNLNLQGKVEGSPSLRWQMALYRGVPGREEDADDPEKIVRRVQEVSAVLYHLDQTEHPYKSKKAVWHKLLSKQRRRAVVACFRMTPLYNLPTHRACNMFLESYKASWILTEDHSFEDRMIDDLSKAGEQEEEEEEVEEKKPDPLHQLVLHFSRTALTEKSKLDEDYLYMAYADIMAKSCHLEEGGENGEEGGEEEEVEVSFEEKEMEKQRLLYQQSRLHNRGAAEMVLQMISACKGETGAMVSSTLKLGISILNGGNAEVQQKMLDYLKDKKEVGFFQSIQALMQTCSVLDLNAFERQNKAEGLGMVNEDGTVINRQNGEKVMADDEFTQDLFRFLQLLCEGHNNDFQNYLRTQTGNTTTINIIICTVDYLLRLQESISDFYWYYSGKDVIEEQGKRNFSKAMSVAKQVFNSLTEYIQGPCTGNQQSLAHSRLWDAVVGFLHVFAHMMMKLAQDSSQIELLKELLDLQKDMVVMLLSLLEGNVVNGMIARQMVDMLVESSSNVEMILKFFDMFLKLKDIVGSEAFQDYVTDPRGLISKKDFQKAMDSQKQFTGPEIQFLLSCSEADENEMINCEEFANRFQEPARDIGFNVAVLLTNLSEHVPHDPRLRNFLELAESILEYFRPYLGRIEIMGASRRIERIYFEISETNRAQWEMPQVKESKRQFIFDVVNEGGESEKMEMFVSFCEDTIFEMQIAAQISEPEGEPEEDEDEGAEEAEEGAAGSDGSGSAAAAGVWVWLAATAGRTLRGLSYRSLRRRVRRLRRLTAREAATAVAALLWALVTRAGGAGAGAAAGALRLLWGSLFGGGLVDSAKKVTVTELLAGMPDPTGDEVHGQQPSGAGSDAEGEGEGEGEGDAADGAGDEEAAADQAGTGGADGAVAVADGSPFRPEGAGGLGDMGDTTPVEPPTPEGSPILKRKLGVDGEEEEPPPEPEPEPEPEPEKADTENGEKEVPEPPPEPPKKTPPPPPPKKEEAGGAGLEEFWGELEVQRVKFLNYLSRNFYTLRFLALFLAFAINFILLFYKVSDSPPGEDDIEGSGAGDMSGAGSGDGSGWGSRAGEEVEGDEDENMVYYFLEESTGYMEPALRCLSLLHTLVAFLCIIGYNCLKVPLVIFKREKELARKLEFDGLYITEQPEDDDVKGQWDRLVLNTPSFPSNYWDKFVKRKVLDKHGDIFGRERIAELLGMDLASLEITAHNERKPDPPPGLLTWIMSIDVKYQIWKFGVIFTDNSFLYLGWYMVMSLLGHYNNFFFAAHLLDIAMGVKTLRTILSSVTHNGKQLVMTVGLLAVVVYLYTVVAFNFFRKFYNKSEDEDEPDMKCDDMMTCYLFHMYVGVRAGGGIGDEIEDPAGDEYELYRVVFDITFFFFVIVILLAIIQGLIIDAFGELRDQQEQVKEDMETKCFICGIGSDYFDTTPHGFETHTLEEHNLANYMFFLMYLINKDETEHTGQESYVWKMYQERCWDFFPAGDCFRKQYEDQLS

Compound	Ca2+-sparks frequency / RyR1-dependent leaky behavior (RyR1)	distribution of fiber type (slow vs fast) [1]	muscle fibre atrophy / cross section area (CSA) [1]	prevention of VIDD in porcine model (piglet diaphragm (VIDD))	RyR2 mediated Ca2+-leak in cardiomyocytes (RyR2; previous study [30])	cardiac anti-arrhythmic effect, RyR2 stabilization (RyR2; previously reported (ref. 21))	Tmax ([2]; pig, plasma, 0.25 mg/kg, read-out: time of plasmatic peak) [min]	biodistribution [2]	dissipation of plasmatic peak [2]	reduction of trans-diaphragmatic pressure (Pdi) / VIDD in piglets (piglet diaphragm (VIDD); IV bolus 0.250 mg·kg^−1 then 0.025 mg·kg^−1 every 12 hours, 72 h MV)	diastolic level of calcium ([3]; 1 μM, without isoproterenol, DMD hIPSc cardiomyocytes)	RyR2 dysfunction in DMD ([3]; DMD-derived ventricular cardiomyocytes)	resting calcium under isoproterenol stimulation ([3]; hexanor, Iso 1 μM, DMD hIPSc cardiomyocytes)
CC/C=C\C/C=C\C/C=C\C[C@@H]1[C@H](/C=C/C(O)CCC(=O)O)[C@@H](O)C[C@H]1O (mixture of isomers) [Compound 4F4t-NeuroP, 4(RS)-4-F4t-Neuroprostane]	full prevention of this RyR1-dependent leaky behavior	without changing the distribution of fiber type	prevents diaphragm muscle fibres atrophy after 12 hours of mechanical ventilation independently of the fibre phenotype; also recorded: prevents the reduction of cross section area (CSA), independently of the muscle fiber phenotype	prevent with a high efficiency VIDD	able to prevent RyR2 mediated Ca^2+-leak in cardiomyocytes	the active molecule was not DHA itself but a non-enzymatic metabolite of DHA							
CC/C=C\C[C@@H]1[C@H](/C=C/C(O)CCC(=O)O)[C@@H](O)C[C@H]1O (mixture of isomers) [VB558, (E)-6-((1S,2R,3R,5S)-3,5-dihydroxy-2-((Z)-pent-2-en-1-yl)cyclopentyl)-4-hydroxyhex-5-enoic Acid]				prevent with a high efficiency VIDD			5 to 10	fast biodistribution	dissipated rapidly within an hour	prevents VIDD in piglets after 72 hours of ventilation; also recorded: fully prevented	prevented	may be prevented	full normalization of the resting calcium

Reference: patent publication US20260373164A1, “4(RS)-4-F4-NEUROPROSTANE DERIVATIVES (4-F4T-NEUROP) AND THEIR USE IN TREATING VENTILATOR INDUCED DIAPHRAGMATIC DYSFUNCTION AND OTHER DISEASES” (INSTITUT NATIONAL DE LA SANTÉ ET DE LA RECHERCHE MÉDICALE, priority 2022, published 2026)
